Data as given in ChEMBL document CHEMBL5126606, “Sodium-Glucose Cotransporter Inhibitors as Antidiabetic Drugs: Current Development and Future Perspectives” (J Med Chem, 2022).

Legend:
[1] = target: T1, Sodium/glucose cotransporter 2 (Homo sapiens, UniProt P31639); assay: Inhibition of human SGLT2 expressed in CHO cells assessed as inhibition of [14C] labeled AMG accumulation incubated for 15 mins; format: cell-based
T1 sequence (P31639 whole entry): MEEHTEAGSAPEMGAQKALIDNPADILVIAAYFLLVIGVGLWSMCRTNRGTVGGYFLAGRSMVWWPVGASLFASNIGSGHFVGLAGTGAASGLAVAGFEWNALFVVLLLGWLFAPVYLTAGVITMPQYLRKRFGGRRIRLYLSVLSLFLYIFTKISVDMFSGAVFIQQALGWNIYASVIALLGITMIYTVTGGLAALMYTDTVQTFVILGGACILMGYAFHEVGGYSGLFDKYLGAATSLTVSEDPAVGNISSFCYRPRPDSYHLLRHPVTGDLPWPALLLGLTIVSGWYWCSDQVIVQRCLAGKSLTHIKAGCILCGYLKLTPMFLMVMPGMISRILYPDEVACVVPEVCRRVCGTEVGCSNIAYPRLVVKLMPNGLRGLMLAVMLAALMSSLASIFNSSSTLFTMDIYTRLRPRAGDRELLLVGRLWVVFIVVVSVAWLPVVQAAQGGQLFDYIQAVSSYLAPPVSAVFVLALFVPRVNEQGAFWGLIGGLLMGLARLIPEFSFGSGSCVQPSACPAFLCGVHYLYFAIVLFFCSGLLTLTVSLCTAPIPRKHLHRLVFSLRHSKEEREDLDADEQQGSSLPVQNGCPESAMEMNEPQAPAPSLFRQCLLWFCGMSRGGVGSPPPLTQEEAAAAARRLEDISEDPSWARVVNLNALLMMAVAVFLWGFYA

[2] = target: T2, Sodium/glucose cotransporter 1 (Homo sapiens, UniProt P13866); assay: Inhibition of human SGLT1 expressed in CHO cells assessed as inhibition of [14C] labeled AMG accumulation incubated for 15 mins; format: cell-based
T2 sequence (P13866 whole entry): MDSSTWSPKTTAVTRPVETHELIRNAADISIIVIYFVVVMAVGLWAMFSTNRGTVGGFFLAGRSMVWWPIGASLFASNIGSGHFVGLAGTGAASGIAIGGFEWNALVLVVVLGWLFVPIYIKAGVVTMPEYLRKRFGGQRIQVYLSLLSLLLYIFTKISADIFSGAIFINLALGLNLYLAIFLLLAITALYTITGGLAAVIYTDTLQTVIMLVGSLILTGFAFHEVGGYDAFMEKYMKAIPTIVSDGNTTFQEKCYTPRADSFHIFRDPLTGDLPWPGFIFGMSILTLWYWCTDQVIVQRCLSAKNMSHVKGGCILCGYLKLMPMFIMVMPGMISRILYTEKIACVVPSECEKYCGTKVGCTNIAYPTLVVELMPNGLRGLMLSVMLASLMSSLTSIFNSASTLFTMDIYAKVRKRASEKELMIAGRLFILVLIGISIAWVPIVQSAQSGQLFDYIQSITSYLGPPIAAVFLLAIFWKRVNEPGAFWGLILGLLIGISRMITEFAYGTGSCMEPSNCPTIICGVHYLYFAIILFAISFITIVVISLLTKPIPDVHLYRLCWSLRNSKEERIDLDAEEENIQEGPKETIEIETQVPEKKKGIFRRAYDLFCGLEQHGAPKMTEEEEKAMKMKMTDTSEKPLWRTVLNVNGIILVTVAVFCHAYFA

Homo sapiens = species: Homo sapiens; assay: Selectivity ratio of IC50 for full length N-terminal HA-tagged human SGLT1 expressed in HEK293 cells to IC50 for full length N-terminal HA-tagged human SGLT2 expressed in HEK293 cells; format: cell-based
[3] = Oral bioavailability in C57BL/6J mouse at 10 mg/kg measured upto 24 hrs by LC-MS/MS analysis; format: ADME, organism-based; details: in vivo
[4] = target: T1, Sodium/glucose cotransporter 2; assay: Inhibition of full length N-terminal HA-tagged human SGLT2 expressed in HEK293 cells assessed as inhibition of [14C]AMG uptake; format: cell-based
[5] = Half life in C57BL/6J mouse at 10 mg/kg,po measured upto 24 hrs by LC-MS/MS analysis; format: ADME, organism-based; details: in vivo
[6] = target: T2, Sodium/glucose cotransporter 1; assay: Inhibition of full length N-terminal HA-tagged human SGLT1 expressed in HEK293 cells assessed as inhibition of [14C]AMG uptake; format: cell-based
[7] = target: T1, Sodium/glucose cotransporter 2; assay: Inhibition of human SGLT2 expressed in xenopus oocytes assessed as inhibition of [14C]AMG uptake; format: cell-based, Oocyte
[8] = target: T1, Sodium/glucose cotransporter 2; assay: Inhibition of human SGLT2 expressed in CHO-K1 cells; format: cell-based
[9] = target: T1, Sodium/glucose cotransporter 2; assay: Inhibition of human SGLT2
[10] = target: T1, Sodium/glucose cotransporter 2; assay: Inhibition of recombinant human SGLT2 expressed in COS-7 cells assessed as inhibition of [14C]AMG uptake; format: cell-based

Work on `CC(=O)NNC[C@H]1O[C@@H](n2cc(Cc3ccc(C4CC4)cc3)c3c(Cl)cccc32)[C@H](O)[C@@H](O)[C@@H]1O` yielded an EC50 [1] of 33 nM and an EC50 [2] of 37 nM.
With `COc1ccc(Cc2cc([C@H]3O[C@@H](SC)[C@H](O)[C@@H](O)[C@@H]3O)ccc2Cl)cc1` the Ratio IC50 (Homo sapiens) was 7.6, the bioavailability [3] was 87% and the IC50 [4] was 2.1 nM. It also gave a half-life [5] of 7 h and an IC50 [6] of 15.9 nM.
`Cc1cc(O)c(C(=O)CCc2ccc3occc3c2)c(O[C@@H]2O[C@H](CO)[C@@H](O)[C@H](O)[C@H]2O)c1` gave an EC50 [7] of 5.2 nM.
`O/N=C/[C@H]1O[C@@H](n2cc(Cc3ccc(C4CC4)cc3)c3c(Cl)cccc32)[C@H](O)[C@@H](O)[C@@H]1O` showed an EC50 [1] of 212 nM.
Compound `O=C(N/N=C/[C@H]1O[C@@H](n2cc(Cc3ccc(C4CC4)cc3)c3c(Cl)cccc32)[C@H](O)[C@@H](O)[C@@H]1O)c1ccccc1` has an EC50 [1] of 258 nM.
Work on `CCOC(=O)OC[C@H]1O[C@@H](Oc2ccccc2Cc2ccc(OC)cc2)[C@H](O)[C@@H](O)[C@@H]1O` [SERGLIFLOZIN ETABONATE] yielded a Ki [8] of 151 nM.
For `CCOc1ccc(Cc2cc([C@H]3O[C@@H](SC)[C@H](O)[C@@H](O)[C@@H]3O)ccc2Cl)cc1`, the IC50 [9] was 1.8 nM.
`COC(=O)NNC[C@H]1O[C@@H](n2cc(Cc3ccc(C4CC4)cc3)c3c(Cl)cccc32)[C@H](O)[C@@H](O)[C@@H]1O` showed an EC50 [1] of 63 nM.
For `CONC[C@H]1O[C@@H](n2cc(Cc3ccc(C4CC4)cc3)c3c(Cl)cccc32)[C@H](O)[C@@H](O)[C@@H]1O`, the EC50 [1] was 455 nM.
With `Cc1cc(OCCCNCCC(N)=O)ccc1Cc1c(O[C@@H]2O[C@H](CO)[C@@H](O)[C@H](O)[C@H]2O)n[nH]c1C(C)C` the Ki [10] was 13600 nM.
In the case of `CO/N=C/[C@H]1O[C@@H](n2cc(Cc3ccc(C4CC4)cc3)c3c(Cl)cccc32)[C@H](O)[C@@H](O)[C@@H]1O`, the EC50 [1] is reported as 286 nM.
